Results published in ChEMBL document CHEMBL1127516, “Synthesis and structure-activity relationships of deazaxanthines: analogs of potent A1- and A2-adenosine receptor antagonists” (J Med Chem, 1994).

Tests used:
Adenosine A2 receptor = Adenosine A2 receptor (Rattus norvegicus, UniProt P29276+P30543); assay: Binding affinity to A2 adenosine receptor from rat striatal membrane in presence of [3H]5'-(N-ethylcarboximido)-adenosine
[1] = target: T1, Adenosine receptor A1 (Rattus norvegicus) (UniProt P25099); assay: Percent inhibition of [3H]R-(phenylisopropyl)-adenosine (PIA) binding to A1 adenosine receptor; conditions: concentration not given here
T1 sequence (whole entry): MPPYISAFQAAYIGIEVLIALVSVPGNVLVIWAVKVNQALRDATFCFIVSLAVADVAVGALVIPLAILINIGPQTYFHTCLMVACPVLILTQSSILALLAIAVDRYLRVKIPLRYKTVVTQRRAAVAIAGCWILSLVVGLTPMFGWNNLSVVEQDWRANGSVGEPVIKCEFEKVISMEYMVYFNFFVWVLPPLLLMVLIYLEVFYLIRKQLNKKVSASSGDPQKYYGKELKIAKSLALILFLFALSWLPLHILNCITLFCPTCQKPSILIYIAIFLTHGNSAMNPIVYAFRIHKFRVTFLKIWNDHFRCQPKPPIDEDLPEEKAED

[2] = target: Adenosine A2 receptor (Rattus norvegicus) (UniProt P29276+P30543); assay: Percent inhibition of [3H]5'-(N-ethylcarboximido)-adenosine (NECA) binding to A2 adenosine receptor; type: protein assay; parameters: concentration or dose not given beside the values; conditions: concentration not given here
Adenosine receptor A1 = target: T2, Adenosine receptor A1 (Rattus norvegicus, UniProt P25099); assay: Binding affinity to A1 adenosine receptor from rat cortical membrane in presence of [3H]R-(phenylisopropyl)-adenosine
T2 sequence (P25099 whole entry): T1 sequence (whole entry)

## Cn1c(=O)c2c(cc(-c3cccc4ccccc34)n2O)n(C)c1=O
Adenosine A2 receptor
  Ki: > 100000 nM
[1]
  inhibition: 47%
[2]
  inhibition: 38%
Adenosine receptor A1
  Ki: > 30000 nM

## CCCn1c(=O)c2c(ccn2C)n(CCC)c1=O
Adenosine A2 receptor
  Ki: 13000 nM
Adenosine receptor A1
  Ki: 2300 nM

## CCCn1c(=O)c2c(ncn2C)n(CCC)c1=O
Adenosine A2 receptor
  Ki: 10000 nM

## Cn1c(=O)c2c(cc(-c3ccc4ccccc4c3)n2O)n(C)c1=O
Adenosine A2 receptor
  Ki: 1000 nM
Adenosine receptor A1
  Ki: 220 nM

## Cn1c(=O)c2cc(-c3ccccc3)n(C)c2n(C)c1=O
Adenosine A2 receptor
  Ki: 40000 nM
Adenosine receptor A1
  Ki: 11000 nM

## CCCn1c(=O)[nH]c2cc(-c3ccccc3)[nH]c2c1=O
Adenosine A2 receptor
  Ki: 1200 nM
Adenosine receptor A1
  Ki: 39 nM

## Cn1c(=O)c2c(cc(/C=C/c3ccccc3)n2C)n(C)c1=O
Adenosine A2 receptor
  Ki: 260 nM
Adenosine receptor A1
  Ki: 2600 nM

## Cn1c(=O)c2[nH]ccc2n(C)c1=O
Adenosine A2 receptor
  Ki: 12000 nM
Adenosine receptor A1
  Ki: 5400 nM

## Cn1c(=O)c2[nH]c(-c3ccccc3)cc2n(C)c1=O
Adenosine A2 receptor
  Ki: 510 nM
Adenosine receptor A1
  Ki: 47 nM

## Cn1c(=O)c2c(ccn2C)n(C)c1=O
Adenosine A2 receptor
  Ki: 72000 nM
Adenosine receptor A1
  Ki: 32000 nM

## CCCn1c(=O)c2c(cc(-c3ccccc3)n2C)n(CCC)c1=O
Adenosine A2 receptor
  Ki: 5200 nM

## Cn1c(=O)c2c(cc(-c3cccc4ccccc34)n2C)n(C)c1=O
Adenosine A2 receptor
  Ki: > 30000 nM
[2]
  inhibition: 22%
Adenosine receptor A1
  Ki: 9200 nM

## CCCn1c(=O)c2[nH]ccc2n(CCC)c1=O
Adenosine A2 receptor
  Ki: 5100 nM
Adenosine receptor A1
  Ki: 440 nM

## CCCn1c(=O)c2[nH]c(N(C)C)cc2n(CCC)c1=O
Adenosine A2 receptor
  Ki: 16000 nM
Adenosine receptor A1
  Ki: 130 nM

## Cn1c(=O)c2c(cc(-c3ccccc3)n2C)n(C)c1=O
Adenosine A2 receptor
  Ki: 14000 nM

## Cn1c(=O)c2[nH]c(-c3cccc4ccccc34)cc2n(C)c1=O
Adenosine A2 receptor
  Ki: > 30000 nM
[1]
  inhibition: 33%
[2]
  inhibition: 1.2%
Adenosine receptor A1
  Ki: > 30000 nM

## Cn1c(=O)c2cc(-c3ccccc3)[nH]c2n(C)c1=O
Adenosine A2 receptor
  Ki: 12000 nM
Adenosine receptor A1
  Ki: 3100 nM

## CCCn1c(=O)[nH]c2cc[nH]c2c1=O
Adenosine A2 receptor
  Ki: 18000 nM
Adenosine receptor A1
  Ki: 1700 nM

## Cn1c(=O)[nH]c2cc(-c3ccccc3)[nH]c2c1=O
Adenosine A2 receptor
  Ki: 2000 nM
Adenosine receptor A1
  Ki: 97 nM

## Cn1c(=O)c2c(cc(/C=C/c3ccccc3)n2O)n(C)c1=O
Adenosine A2 receptor
  Ki: 1800 nM
Adenosine receptor A1
  Ki: 560 nM

## Cn1c(=O)[nH]c2cc[nH]c2c1=O
Adenosine A2 receptor
  Ki: 34000 nM
Adenosine receptor A1
  Ki: 2900 nM

## Cn1c(=O)c2[nH]c(-c3ccc4ccccc4c3)cc2n(C)c1=O
Adenosine A2 receptor
  Ki: > 500 nM
[2]
  inhibition: 34%
Adenosine receptor A1
  Ki: 26 nM

## CCCn1c(=O)c2c(nc(-c3ccccc3)n2C)n(CCC)c1=O
Adenosine A2 receptor
  Ki: 15000 nM

## Cn1c(=O)c2[nH]c(/C=C/c3ccccc3)cc2n(C)c1=O
Adenosine A2 receptor
  Ki: 640 nM
Adenosine receptor A1
  Ki: 165 nM

## Cn1c(=O)c2c(cc(-c3ccc4ccccc4c3)n2C)n(C)c1=O
Adenosine A2 receptor
  Ki: 1100 nM
Adenosine receptor A1
  Ki: 270 nM

## Cn1c(=O)c2cc[nH]c2n(C)c1=O
Adenosine A2 receptor
  Ki: > 250000 nM
[2]
  inhibition: 39%
Adenosine receptor A1
  Ki: 43000 nM

## CCCn1c(=O)c2[nH]c(-c3ccccc3)cc2n(CCC)c1=O
Adenosine A2 receptor
  Ki: 450 nM
Adenosine receptor A1
  Ki: 13 nM

## Cn1c(=O)c2c(nc(-c3ccccc3)n2C)n(C)c1=O
Adenosine A2 receptor
  Ki: 25000 nM

## Cn1c(=O)c2nc(-c3ccccc3)[nH]c2n(C)c1=O [8-PHENYL THEOPHYLLINE]
Adenosine A2 receptor
  Ki: 830 nM
